Laboratory results taken from the supplement of paper PMC8671470.

Legend:
Conditions in all cases: 72 h
HL-60 [1] = test: cell viability (% survival relative to DMSO control); higher = less cytotoxic
How it was run: (§1)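 A rescreen of the full library used HL-60 cells in RPMI 1640 with 10% FBS on 384-well plates, run in duplicate at five tenfold concentrations (1–10,000 nM). Each screen included DMSO or 100 nM of one of three metabolic inhibitors and ran 72 h at 37 °C, 5% CO2. CellTiter-Glo viability was scaled between DMSO and 10 μM proteasome-inhibitor wells. Any area under the curve comes from four-parameter log-logistic fits with drc and PharmacoGx.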

[2] = test system: myeloid leukemia patient primary cells Pat.10; test: cell viability (% survival relative to DMSO control); higher = less cytotoxic
How it was run: (§2)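 Seventy compounds were pre-printed on 384-well plates at five tenfold concentrations between 1 and 10,000 nM, in duplicate. Thawed mononuclear cells purified by Ficoll from AML or CML patients were added at 10,000 cells/well in RPMI 1640 with 10% FBS for 72 h. Viability by CellTiter-Glo was normalised to DMSO and 10 μM proteasome-inhibitor wells. Where stated, area under the curve was taken from log-logistic fits made with the drc and PharmacoGx R packages, each fit having four parameters.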

[3] = test system: myeloid leukemia patient primary cells Pat.11; test: as above
How it was run: as §2

[4] = test system: myeloid leukemia patient primary cells Pat.12; test: as above
How it was run: as §2

[5] = test system: myeloid leukemia patient primary cells Pat.13; test: as above
How it was run: as §2

[6] = test system: myeloid leukemia patient primary cells Pat.14; test: as above
How it was run: as §2

[7] = test system: myeloid leukemia patient primary cells Pat.15; test: as above
How it was run: as §2

[8] = test system: myeloid leukemia patient primary cells Pat.1; test: as above
How it was run: as §2

[9] = test system: myeloid leukemia patient primary cells Pat.2; test: as above
How it was run: as §2

[10] = test system: myeloid leukemia patient primary cells Pat.3; test: as above
How it was run: as §2

[11] = test system: myeloid leukemia patient primary cells Pat.4; test: as above
How it was run: as §2

[12] = test system: myeloid leukemia patient primary cells Pat.5; test: as above
How it was run: as §2

[13] = test system: myeloid leukemia patient primary cells Pat.6; test: as above
How it was run: as §2

[14] = test system: myeloid leukemia patient primary cells Pat.7; test: as above
How it was run: as §2

[15] = test system: myeloid leukemia patient primary cells Pat.8; test: as above
How it was run: as §2

[16] = test system: myeloid leukemia patient primary cells Pat.9; test: as above
How it was run: as §2

HL-60 [17] = test: area under dose-response curve (viability, 1 nM-10 uM) (fraction (0-1)); higher = more sensitive
How it was run: as §1

C[C@]12C=CC(=O)C=C1CC[C@@H]1[C@@H]2[C@@H](O)C[C@@]2(C)[C@H]1CC[C@]2(O)C(=O)CO [Prednisolone]
cell viability [%], HL-60 [1]
Conditions | 0.001 µM | 0.01 µM | 0.1 µM | 1 µM | 10 µM
co-treatment: AZD3965 100 nM | 82.4 | 96.7 | 103 | 103 | 96.2
co-treatment: DMSO vehicle | 95.9 | 104 | 100 | 103 | 101.5
co-treatment: GSK2194069 100 nM | 94.8 | 101 | 98.4 | 101 | 100
co-treatment: pictilisib 100 nM | 90 | 92.8 | 99.1 | 105.5 | 95.8

Conditions | area under dose-response curve, co-treatment: AZD3965 100 nM | area under dose-response curve, co-treatment: DMSO vehicle | area under dose-response curve, co-treatment: GSK2194069 100 nM | area under dose-response curve, co-treatment: pictilisib 100 nM | cell viability, 1 nM [%] | cell viability, 10 nM [%] | cell viability, 100 nM [%] | cell viability, 1000 nM [%] | cell viability, 10000 nM [%]
HL-60 [17] | < 0.0301 | < 0.0301 | < 0.0301 | < 0.0301 | – | – | – | – | –
[2] | – | – | – | – | 73.8 | 39.2 | 17.1 | 31.4 | 2.16
[3] | – | – | – | – | 96.9 | 93.5 | 85 | 83 | 64.8
[4] | – | – | – | – | 89 | 88.8 | 95.7 | 83.9 | 79
[5] | – | – | – | – | 93.4 | 82 | 92.6 | > 100 | > 100
[6] | – | – | – | – | 85.8 | 46.4 | 80.9 | 94 | 68.3
[7] | – | – | – | – | 81.1 | 88.6 | 86.1 | 75.4 | 61.2
[8] | – | – | – | – | 83.7 | 69.7 | > 100 | > 100 | 97.2
[9] | – | – | – | – | 95.6 | 86.1 | 87.2 | 77.3 | 76.4
[10] | – | – | – | – | 95 | 71.2 | 73.9 | 46 | 35.2
[11] | – | – | – | – | 95.3 | 78.8 | 78.4 | 75.8 | 53.7
[12] | – | – | – | – | 40.8 | 10.3 | 21.7 | 72 | 20.7
[13] | – | – | – | – | > 100 | 75.7 | 89.4 | 78.5 | 66.2
[14] | – | – | – | – | 66.5 | 60.7 | 84.5 | 83.6 | 83.4
[15] | – | – | – | – | 86.3 | 70.1 | 87.3 | 59.3 | 47.6
[16] | – | – | – | – | 99.2 | 18.2 | 84.8 | > 100 | > 100

O=c1cc(N2CCOCC2)oc2c(-c3ccccc3)cccc12
cell viability [%], HL-60 [1]
Conditions | 0.001 µM | 0.01 µM | 0.1 µM | 1 µM | 10 µM
co-treatment: AZD3965 100 nM | 99.5 | 101 | 103.3 | 100 | 75.2
co-treatment: DMSO vehicle | 99.2 | 100 | 102 | 91.6 | 86
co-treatment: GSK2194069 100 nM | 107 | 101.4 | 105 | 99.4 | 84
co-treatment: pictilisib 100 nM | 110 | 104 | 103 | 92.2 | 79.6

Conditions | area under dose-response curve, co-treatment: AZD3965 100 nM | area under dose-response curve, co-treatment: GSK2194069 100 nM | area under dose-response curve, co-treatment: pictilisib 100 nM | cell viability, 1 nM [%] | cell viability, 10 nM [%] | cell viability, 100 nM [%] | cell viability, 1000 nM [%] | cell viability, 10000 nM [%]
HL-60 [17] | < 0.0301 | < 0.0301 | 0.058 | – | – | – | – | –
[2] | – | – | – | 31.3 | 46.9 | 78.1 | 50.8 | 22.6
[3] | – | – | – | 88.7 | 94.2 | 96.7 | 91.1 | 65.2
[4] | – | – | – | 91.4 | 98.3 | 92.6 | 97.4 | 92.4
[5] | – | – | – | 88.7 | 95.7 | 83.6 | 91.4 | 45.6
[6] | – | – | – | 86.4 | 56.8 | 91.1 | 77.9 | 58.3
[7] | – | – | – | 77.5 | > 100 | 97 | 81.7 | 10.2
[8] | – | – | – | 77.8 | 83.5 | 78 | 63.6 | 27.5
[9] | – | – | – | 92.1 | 87.9 | 99.7 | 91.1 | 67.2
[10] | – | – | – | 96.2 | 37.6 | 92.2 | 80 | 61.6
[11] | – | – | – | 78.8 | 98.5 | 86.1 | 63.1 | 14.4
[12] | – | – | – | 47.8 | 0.265 | 70.4 | 58.3 | < 0
[13] | – | – | – | 91.8 | 82.3 | 93.2 | 97 | 68.3
[14] | – | – | – | 84.4 | 64.8 | 94.8 | 92.1 | 80.5
[15] | – | – | – | 88.3 | 86 | 92.4 | 67.1 | 61.5
[16] | – | – | – | 63.7 | 15.2 | 77.7 | 54.8 | 12.5

CC(C)(C)c1ccc(S(=O)(=O)NCc2ccc(C(=O)Nc3cccnc3)cc2)cc1 [STF-31]
cell viability [%], HL-60 [1]
Conditions | 0.001 µM | 0.01 µM | 0.1 µM | 1 µM | 10 µM
co-treatment: AZD3965 100 nM | 104 | 95.82 | 94.3 | 20.9 | 2.06
co-treatment: DMSO vehicle | 104 | 94.1 | 108 | 10.1 | 4.63
co-treatment: GSK2194069 100 nM | 101 | 98.62 | 99.7 | 6.72 | 2.51
co-treatment: pictilisib 100 nM | 100 | 93.2 | 105 | 18 | 3.08

Conditions | area under dose-response curve, co-treatment: AZD3965 100 nM | area under dose-response curve, co-treatment: DMSO vehicle | area under dose-response curve, co-treatment: GSK2194069 100 nM | area under dose-response curve, co-treatment: pictilisib 100 nM | cell viability, 1 nM [%] | cell viability, 10 nM [%] | cell viability, 100 nM [%] | cell viability, 1000 nM [%] | cell viability, 10000 nM [%]
HL-60 [17] | 0.328 | 0.342 | 0.362 | 0.324 | – | – | – | – | –
[2] | – | – | – | – | 56.6 | 35 | 64.9 | < 0 | 4.94
[3] | – | – | – | – | 95.5 | 92.3 | 99.3 | 2.57 | 1.37
[4] | – | – | – | – | 96.2 | 96.2 | 92.7 | 7.74 | 4.47
[5] | – | – | – | – | 94.8 | 87.8 | 87.7 | 8.95 | 9.54
[6] | – | – | – | – | 74.9 | 62.1 | 9.36 | 1.38 | < 0
[7] | – | – | – | – | 87.8 | 90.9 | 89.8 | 2.3 | 1.11
[8] | – | – | – | – | 95.2 | 82 | > 100 | 31.6 | 16.5
[9] | – | – | – | – | 98.4 | 96.8 | 84.9 | 13.2 | 11.4
[10] | – | – | – | – | 90.6 | 45.5 | 6.65 | 2.19 | 1.78
[11] | – | – | – | – | 84.9 | 83.8 | 18 | 1.84 | 1.54
[12] | – | – | – | – | 78.8 | 6.66 | 0.912 | 0.265 | 2.27
[13] | – | – | – | – | 98 | 85.7 | 71.1 | 21.7 | 28.8
[14] | – | – | – | – | 80.1 | 62.7 | 7.78 | < 0 | < 0
[15] | – | – | – | – | 97.5 | 87 | 63 | 6.59 | 9.06
[16] | – | – | – | – | 72.4 | 28.7 | 7.17 | < 0 | 0.773
